{"source": "patent US20250281607A1", "about": "“MEDICAMENT FOR TREATMENT AND/OR PREVENTION OF CANCER” (TORAY INDUSTRIES, INC., priority 2021, published 2025)", "key": {"[1]": {"tested_on": "prostate cancer cell line DU145", "test": "THP-1-mediated phagocytic activity against DU145 (Example 2)", "assay_type": "cell-based, human", "settings": "cells cultured 2 days with drug at 250 nM, then anti-CAPRIN-1 humanized antibody #1 5 μg/mL, FIG. 1", "description": "(§1) Specifically, in each combination test group (a trametinib combination test group, a fluorouracil combination test group and an irinotecan combination test group), the indicated drug used in combination was applied to human cancer cells, and then the cancer cells were cocultured with human monocytic cells (THP-1) in the presence of the anti-CAPRIN-1 antibody, and the antibody-mediated phagocytic activity against the cancer cells by THP-1 was evaluated. The human-derived cancer cells used were melanoma cell line A375 (used only in the trametinib combination test group), colon cancer cell line HCT116, prostate cancer cell line DU145 (used only in the trametinib combination test group), and lung cancer cell line A549 (used only in the trametinib combination test group). […]\n(§2) Each cancer cell line after the culture was dissociated with TrypLE Express (Thermo), and the cancer cells were stained by the addition of calcein-AM at a final concentration of 0.02 μg/mL and incubation at 37° C. for 30 minutes. […] Further, dead cells were stained with propidium iodide (PI) (final concentration: 0.1 μg/mL), followed by the measurement of fluorescence from the cells by flow cytometry. […] Thus, the phagocytic activity in this evaluation system was calculated as the ratio (%) of APC-positive/calcein-AM-positive cells to the whole calcein-AM-positive population."}, "[2]": {"tested_on": "lung cancer cell line A549", "test": "THP-1-mediated phagocytic activity against A549 (Example 2)", "assay_type": "cell-based, human", "settings": "cells cultured 2 days with drug at 250 nM, then anti-CAPRIN-1 humanized antibody #1 5 μg/mL, FIG. 1", "description": "as §1, §2"}, "melanoma cell line A375": {"tested_on": "melanoma cell line A375", "test": "THP-1-mediated phagocytic activity against A375 (Example 2)", "assay_type": "cell-based, human", "settings": "cells cultured 2 days with drug at 50 nM, then anti-CAPRIN-1 humanized antibody #1 5 μg/mL, FIG. 1", "description": "as §1, §2"}, "[3]": {"tested_on": "colon cancer cell line HCT116", "test": "THP-1-mediated phagocytic activity against HCT116 (Example 2)", "assay_type": "cell-based, human", "settings": "cells cultured 2 days with drug at 50 nM, then anti-CAPRIN-1 humanized antibody #1 5 μg/mL, FIG. 1, 2", "description": "as §1, with “group). On a 6-well plate, the human-derived cancer cells were cultured for 2 days in the presence of trametinib for the trametinib combination test group, and cultured for 2 days in the presence of the each drug used in combination for the fluorouracil combination test group and the irinotecan combination test group. The concentration of the drug used in combination was set to a concentration that decreased the proliferation rate of the cancer cells by about half at the completion of culture.” for “group).”\nas §2"}, "[4]": {"settings": "trametinib in itself (therefore also used as DMSO solvate); cited from earlier work"}}}
{"smiles": "CC(=O)Nc1cccc(-n2c(=O)n(C3CC3)c(=O)c3c(Nc4ccc(I)cc4F)n(C)c(=O)c(C)c32)c1", "note": "[trametinib, N-[3-[3-cyclopropyl-5-(2-fluoro-4-iodoanilino)-6,8-dimethyl-2,4,7-trioxopyrido[4,3-d]pyrimidin-1-yl]phenyl]acetamide]", "values": [{"measurement": "phagocytic activity against cancer cells", "setting": "[1]", "value": 9, "unit": "%"}, {"measurement": "phagocytic activity against cancer cells", "setting": "[2]", "value": 7, "unit": "%"}, {"measurement": "phagocytic activity against cancer cells", "setting": "melanoma cell line A375", "value": 49, "unit": "%"}, {"measurement": "phagocytic activity against cancer cells", "setting": "[3]", "value": 45, "unit": "%"}, {"measurement": "solubility", "setting": "[4]", "value": "poorly soluble"}]}
